The text below walks through data of US20260209214A1, “LSD1 MODULATORS” (RECURSION PHARMACEUTICALS, INC., priority 2022, published 2026).

The target in this experiment is Recombinant human LSD1 (Homo sapiens, UniProt O60341). Kind of experiment: LSD1 inhibition assay (HTRF LSD1 Histone H3K4 mono-demethylation assay, me1->me0). The class given is biochemical. Conditions: 20 nM recombinant human LSD1, 95 nM H3K4(me1) biotinylated peptide, 15 min preincubation, 60 min at 25° C., read-out: LSD1 inhibition IC50 (nM range). The gist of the method: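 Recombinant human LSD1 (20 nM) pre-incubated 15 min with 10 semi-log compound doses, then 95 nM biotinylated H3K4me1 peptide for 60 min at 25 °C in pH 8.5 Tris/NaCl buffer with 10 μM FAD, 1 mM DTT. HTRF me0-antibody read after 90 min; IC50 from 4-parameter fit.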
Background: TR-FRET usually uses a lanthanide donor and a delayed reading to cut background.

Molecules are shown by their SMILES.

On to `N#Cc1ccc(-c2cccc(C[C@H]3CNCCO3)c2-c2ccns2)cc1F` [Example 4, 3-fluoro-3′-{[(2S)-morpholin-2-yl]methyl}-2′-(1,2-thiazol-5-yl)-[1,1′-biphenyl]-4-carbonitrile], for which the IC50 is less than 10 nM.
For the molecule `COCC1CCN(c2ccc(CN3C[C@]4(N)CC[C@H]3C4)cc2-c2ccc(C#N)c(F)c2)CC1` [Example 216, 5'-{[(1S,4S)-4-amino-2-azabicyclo[2.2.1]heptan-2-yl]methyl}-3-fluoro-2'-[4-(methoxymethyl)piperidin-1-yl]-[1,1'-biphenyl]-4-carbonitrile], the IC50 was less than 10 nM.
`N#Cc1ccc(-c2cccc(CN3[C@@H]4CC[C@H]3[C@@H](N)C4)c2C2=CCOC2)cc1F` (racemic) [Example 303, 3'-{[(1S,2S,4R)-2-amino-7-azabicyclo[2.2.1]heptan-7-yl]methyl}-2'-(2,5-dihydrofuran-3-yl)-3-fluoro-[1,1'-biphenyl]-4-carbonitrile]: the IC50 was less than 10 nM.
With `N#Cc1ccc(-c2cccc(CN3CCCC(N)C3)c2Cl)cc1F` (stereo not drawn) [Example 332, 3'-[(3-aminopiperidin-1-yl)methyl]-2'-chloro-3-fluoro-[1,1'-biphenyl]-4-carbonitrile], the IC50 lay in the range of 100 to 1000 nM.
As to `CCN[C@@H]1C[C@@H]2CC[C@H]1N2Cc1cccc(-c2ccc(C#N)c(F)c2)c1C1CC1` (single isomer, unassigned) [Example 201], the IC50 was in the range of 10 to 25 nM.
For the molecule `N#Cc1ccc(-c2cccc(C[C@H]3CNCCO3)c2-c2ccno2)cc1F` (single isomer, unassigned) [Example 17], the IC50 is 10 to 25 nM.
Regarding `C[C@]1(N)CCN(Cc2c(F)ccc(-c3ccc(C#N)c(F)c3)c2Cl)C1` [Example 342, 3'-{[(3S)-3-amino-3-methylpyrrolidin-1-yl]methyl}-2'-chloro-3,4'-difluoro-[1,1'-biphenyl]-4-carbonitrile], the half-maximal inhibitory concentration (IC50) was in the range of 100 to 1000 nM.
`COCCOc1ccc(-c2ccc(CC3CNCCO3)cc2-c2ccc(C#N)c(F)c2)cc1` (stereo not drawn) [Example 94, 3-fluoro-2′-[4-(2-methoxyethoxy)phenyl]-5′-[(morpholin-2-yl)methyl]-[1,1′-biphenyl]-4-carbonitrile]: the IC50 lay within 25 to 100 nM.
As for `N#Cc1ccc(-c2ccc(F)c(CN3[C@H]4CC[C@@H]3[C@H](N)C4)c2OC(F)F)cc1F` (single isomer, unassigned) [Example 169], the IC50 is 10 to 25 nM.
On to `N#Cc1ccc(-c2cccc(CC3CNCCCO3)c2N2CCC2)cc1F` (stereo not drawn) [Example 46, 2′-(azetidin-1-yl)-3-fluoro-3′-[(1,4-oxazepan-2-yl)methyl]-[1,1′-biphenyl]-4-carbonitrile], for which the IC50 is 25 to 100 nM.
For the molecule `N#Cc1ccc(-c2cccc(C[C@H]3CNCCO3)c2-c2scnc2Cl)cc1F` (single isomer, unassigned) [Example 31], the IC50 was in the range of 25 to 100 nM.
As to `COc1ccc(-c2ccc(CN3[C@@H]4CC[C@H]3[C@@H](N)C4)cc2-c2ccc(C#N)c(F)c2)cn1` (racemic) [Example 230, 5'-{[(1S,2S,4R)-2-amino-7-azabicyclo[2.2.1]heptan-7-yl]methyl}-3-fluoro-2'-(6-methoxypyridin-3-yl)-[1,1'-biphenyl]-4-carbonitrile], the half-maximal inhibitory concentration (IC50) was 10 to 25 nM.
In the case of `CC(c1ccc(N2CCC2)c(-c2ccc(C#N)c(F)c2)c1)C1CNCCO1` (stereo not drawn) [Example 144, 2′-(azetidin-1-yl)-3-fluoro-5′-[1-(morpholin-2-yl)ethyl]-[1,1′-biphenyl]-4-carbonitrile], the IC50 is greater than 1000 nM.
With `CC1(C)CNCC(Cc2ccc(N3CCC3)c(-c3ccc(C#N)c(F)c3)c2)O1` (stereo not drawn) [Example 139, 2'-(azetidin-1-yl)-5'-[(6,6-dimethylmorpholin-2-yl)methyl]-3-fluoro-[1,1'-biphenyl]-4-carbonitrile], the IC50 was in the range of 100 to 1000 nM.
For `CCC1(O)CCN(c2ccc(CC3CNCCO3)cc2-c2ccc(C#N)c(F)c2)CC1` (stereo not drawn) [Example 33, 2′-(4-ethyl-4-hydroxypiperidin-1-yl)-3-fluoro-5′-[(morpholin-2-yl)methyl]-[1,1′-biphenyl]-4-carbonitrile], the IC50 was 25 to 100 nM.

The term IC50 denotes the midpoint of a concentration-inhibition curve.
